These results are taken from US20210300936A1, “PYRAZOLOTRIAZOLOPYRIMIDINE DERIVATIVES AS A2A RECEPTOR ANTAGONIST” (BEIGENE, LTD., priority 2018, published 2021).

For experiment [1], the target named is T1, human adenosine receptor A2A (A2AR) (Homo sapiens, UniProt P29274).
T1 construct: host or cells: HEK293 cells (membrane homogenates)
The experiment is described as follows: Adenosine receptor binding assay, radioligand competitive binding, [3H]CGS21680. To be noted: membrane homogenates from HEK293 cells transfected with A2AR, 6 nM [3H]CGS21680. On the procedure:
(§1) Binding affinity of test compounds to four human adenosine receptors, A1, A2A, A2B and A3 was determined in radioligand competitive binding assay (conducted by Cerep, France) using following protocols. For A1 receptor (A1R), membrane homogenates from CHO cells transfected with A1R were incubated for 60 min at 22° C. with 1 nM [3H]DPCPX in the absence or presence of the test compound in a buffer containing 50 mM Tris-HCl (pH 7.4), 5 mM MgCl2, 1 mM EDTA/Tris and 2 UI/mL ADA. For A2AR, membrane homogenates from HEK293 cells transfected with A2AR were incubated for 120 min at 22° C. with 6 nM [3H]CGS21680 in the absence or presence of the test compound in a buffer containing 50 mM Tris-HCl (pH 7.4), 10 mM MgCl2, and 2 UI/mL ADA. For A2B receptor (A2BR), membrane homogenates from HEK293 cells transfected with A2BR were incubated for 60 min at 22° C. with 5 nM [3H]CPX in the absence or presence of the test compound in a buffer containing 10 mM Hepes/Tris (pH 7), 1 mM MgCl2, and 1 mM EDTA. For A3 receptor (A3R), membrane homogenates from HEK293 cells transfected with A3R were incubated for 120 min at 22° C. with 0.15 nM [125I]AB-MECA in the absence or presence of the test compound in a buffer containing 50 mM Tris-HCl (pH 7.4), 5 mM MgCl2, 1 mM EDTA and 2 UI/mL ADA. Nonspecific binding was determined in the presence of unlabeled 1 μM DPCPX, 10 μM NECA, 100 μM NECA, and 1 μM IB-MECA in A1R, A2AR, A2BR, A3R binding assays, respectively. Following incubation, the samples are rapidly filtered and washed with ice-cold 50 mM Tris-HCl. Then filters are dried and counted for radioactivity in a scintillation counter (Topcount, Packard) using a scintillation cocktail (Microscint 0, Packard). Duplicate experiments were performed for each assay. The results are expressed as a percent inhibition of control radioligand specific binding.

Experiment [2] has as its target T2, human adenosine receptor A1 (A1R) (Homo sapiens, UniProt P30542).
T2 construct: host or cells: CHO cells (membrane homogenates)
T2 sequence (P30542 1-326): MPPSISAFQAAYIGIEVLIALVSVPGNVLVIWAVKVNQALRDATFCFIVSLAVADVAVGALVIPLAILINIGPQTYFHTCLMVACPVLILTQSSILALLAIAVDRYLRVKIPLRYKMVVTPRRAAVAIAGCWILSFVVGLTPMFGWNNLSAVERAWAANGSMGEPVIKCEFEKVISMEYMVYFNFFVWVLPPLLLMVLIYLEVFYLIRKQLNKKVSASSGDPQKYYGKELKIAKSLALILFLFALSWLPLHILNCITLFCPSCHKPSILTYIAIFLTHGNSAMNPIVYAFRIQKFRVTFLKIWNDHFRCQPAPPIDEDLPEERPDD
Briefly: Adenosine receptor binding assay, radioligand competitive binding, [3H]DPCPX. To be noted: membrane homogenates from CHO cells transfected with A1R, 1 nM [3H]DPCPX. On the procedure: as §1

Experiment [3] addresses human A2A receptor (A2AR) (Homo sapiens, UniProt P29274). Briefly: Luciferase reporter assay (HEK293-A2AR-luc2p/CRE/Hygro cells, 3 nM CGS21680). Type of experiment: cell-based. To be noted: 3 nM CGS21680, 5 h incubation. A digest of the protocol:
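Antagonist (0.1–10000 nM) and 3 nM CGS21680 were co-added for 5 h to stable HEK293-A2AR-luc2p/CRE cells, 18 h after seeding in 1% FBS medium containing adenosine deaminase. Luminescence was normalized to agonist alone (100%), and IC50 came from the dose–inhibition curve.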
In general terms: A reporter such as luciferase makes a cellular process visible.

The structures appear in SMILES notation. A value given as a limit tells only on which side of the number the result lay.

One may read the Ki as a measure of affinity in units of concentration, obtained from inhibition or displacement. Read a high Ki as a looser hold on the target. Broadly, the IC50 is the concentration needed to halve the response being measured. Low values mean greater potency, high ones weaker potency.

Sequence of human A2A receptor (A2AR) (P29274 whole entry): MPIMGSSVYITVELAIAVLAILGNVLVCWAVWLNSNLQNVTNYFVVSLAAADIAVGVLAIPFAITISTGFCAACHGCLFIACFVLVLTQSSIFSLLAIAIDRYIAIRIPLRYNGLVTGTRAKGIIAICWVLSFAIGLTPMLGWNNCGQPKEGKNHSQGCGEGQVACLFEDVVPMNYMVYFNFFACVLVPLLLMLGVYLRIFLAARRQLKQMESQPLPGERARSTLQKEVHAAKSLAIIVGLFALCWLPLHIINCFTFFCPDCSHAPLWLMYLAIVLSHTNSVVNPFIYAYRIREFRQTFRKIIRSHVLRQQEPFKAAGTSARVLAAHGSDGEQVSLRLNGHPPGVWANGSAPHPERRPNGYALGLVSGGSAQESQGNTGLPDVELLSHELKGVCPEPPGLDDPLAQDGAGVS
T1 sequence (P29274 whole entry): as above

Take `COCCOc1ccc(N2CCN(C(=O)C(C)n3cc4c(nc(N)n5nc(-c6ccco6)nc45)n3)CC2)cc1` (single isomer, unassigned) [Compound C1a]: the inhibition constant (Ki) is 6.2 nM in experiment [1] and < 0.5 nM in experiment [2]. The compound further returned a 50% inhibitory concentration (IC50) in experiment [3] of 57.1 nM.
Consider `CCCCC(C(=O)N1CCN(c2ccc(OCCOC)cc2)CC1)n1ncc2c1nc(N)n1nc(-c3ccco3)nc21` (single isomer, unassigned) [Compound A10b, 2-(5-amino-2-(furan-2-yl)-7H-pyrazolo[4,3-e][1,2,4]triazolo[1,5-c]pyrimidin-7-yl)-1-(4-(4-(2-methoxyethoxy)phenyl)piperazin-1-yl)hexan-1-one], for which the results for the Ki in experiment [1] and in experiment [2] were 5.6 nM and 260 nM, respectively. The same compound displayed a half-maximal inhibitory concentration (IC50) in experiment [3] of 143 nM.
For the compound `CCCC(C(=O)N1CCN(c2ccc(OCCN(C)C)cc2)CC1)n1ncc2c1nc(N)n1nc(-c3ccco3)nc21` (single isomer, unassigned) [Compound A39b], the Ki was found to be 2 nM in experiment [1] and 79 nM in experiment [2]. This compound returned an IC50 in experiment [3] of 3.6 nM.
As for `COCCOc1ccc(N2CCN(C(=O)C(CC(C)C)n3ncc4c3nc(N)n3nc(-c5ccco5)nc43)CC2)cc1` (single isomer, unassigned) [Compound A16a], the Ki amounted to 1.5 nM in experiment [1] and 57 nM in experiment [2]. The IC50 in experiment [3] was found to be 0.3 nM.
Take `COCCOc1ccc(N2CCN(C(=O)[C@](C)(c3ccccc3)n3ncc4c3nc(N)n3nc(-c5ccco5)nc43)CC2)cc1` [Compound A63a, (S)-2-(5-amino-2-(furan-2-yl)-7H-pyrazolo[4,3-e][1,2,4]triazolo[1,5-c]pyrimidin-7-yl)-1-(4-(4-(2-methoxyethoxy)phenyl)piperazin-1-yl)-2-phenylpropan-1-one]: the inhibition constant Ki is 3.1 nM in experiment [1] and 1130 nM in experiment [2]. The compound further showed a 50% inhibitory concentration (IC50) in experiment [3] of 8 nM.
The compound `COCCOc1ccc(N2CCN(CCn3ncc4c3nc(N)n3nc(-c5ccco5)nc43)CC2)cc1` [Preladenant, preladenant, reference compound] returned a Ki in experiment [2] of 337 nM.
`COCCOc1ccc(N2CCN(C(=O)C(c3ccccc3)n3ncc4c3nc(N)n3nc(-c5ccco5)nc43)CC2)cc1` (single isomer, unassigned) [Compound A13a]: the results for the Ki in experiment [1] and in experiment [2] were 6.2 nM and 190 nM, respectively. In experiment [3], this compound gave a 50% inhibitory concentration (IC50) of 26.9 nM.
On to `COCCOc1ccc(N2CCN(C(=O)Cn3ncc4c3nc(N)n3nc(-c5ccco5)nc43)CC2)cc1` [Compound D1, 2-(5-amino-2-(furan-2-yl)-7H-pyrazolo[4,3-e][1,2,4]triazolo[1,5-c]pyrimidin-7-yl)-1-(4-(4-(2-methoxyethoxy)phenyl)piperazin-1-yl)ethan-1-one], for which the results for the Ki in experiment [1] and in experiment [2] were 1.8 nM and 52 nM, respectively. This compound registered a half-maximal inhibitory concentration (IC50) in experiment [3] of 27 nM.
For `COCCOc1ccc(N2CCN(C(=O)C(c3ccccc3F)n3ncc4c3nc(N)n3nc(-c5ccco5)nc43)CC2)cc1` (single isomer, unassigned) [Compound A43b], in that order: 1.2 nM, 54 nM and 0.4 nM.
For `COCCOc1ccc(N2CCN(C(=O)C(C)n3cc4c(nc(N)n5nc(-c6ccco6)nc45)n3)CC2)cc1` (single isomer, unassigned) [Compound C1b], in that order: 2.5 nM, 10 nM and 12.7 nM.
In the case of `CCCC(C(=O)N1CCN(c2ccc(OCCOC)cc2F)CC1)n1ncc2c1nc(N)n1nc(-c3ccco3)nc21` (single isomer, unassigned) [Compound A24a], the values for the inhibition constant Ki in experiment [1] and in experiment [2] were 1.4 nM and 120 nM, respectively. In addition, in experiment [3], half-maximal inhibition (IC50) required 1 nM.
For `CC(C)CC(C(=O)N1CCN(c2ccc(F)cc2F)CC1)n1ncc2c1nc(N)n1nc(-c3ccco3)nc21` (single isomer, unassigned) [Compound A22b], in that order: 1.7 nM, 18 nM and 0.6 nM.
For `COCCOc1ccc(N2CCN(C(=O)C(CC(C)C)n3ncc4c3nc(N)n3nc(-c5ccco5)nc43)CC2)cc1` (single isomer, unassigned) [Compound A16b], in that order: 15 nM, 770 nM and 96.4 nM.
`CCCC(C(=O)N1CCN(c2ccc(OCCOC)cc2)CC1)n1ncc2c1nc(N)n1nc(-c3ccco3)nc21` (single isomer, unassigned) [Compound A5b, 2-(5-amino-2-(furan-2-yl)-7H-pyrazolo[4,3-e][1,2,4]triazolo[1,5-c]pyrimidin-7-yl)-1-(4-(4-(2-methoxyethoxy)phenyl)piperazin-1-yl)pentan-1-one]: the Ki in experiment [1] was found to be 6 nM; in experiment [2] it was 310 nM. Besides, the midpoint of inhibition in experiment [3], the IC50, lay at 50 nM.
In the case of `CCCC(C(=O)N1CCN(c2ccc(OCCOC)cc2F)CC1)n1ncc2c1nc(N)n1nc(-c3ccco3)nc21` (single isomer, unassigned) [Compound A24b], the inhibition constant Ki in experiment [1] stood at 8.5 nM; in experiment [2], 1200 nM. Besides, half-maximal inhibition in experiment [3] (IC50) was put at 78.8 nM.
In the case of `COCCOc1ccc(N2CCN(C(=O)[C@@](C)(c3ccccc3)n3ncc4c3nc(N)n3nc(-c5ccco5)nc43)CC2)cc1` [Compound A63b, (R)-2-(5-amino-2-(furan-2-yl)-7H-pyrazolo[4,3-e][1,2,4]triazolo[1,5-c]pyrimidin-7-yl)-1-(4-(4-(2-methoxyethoxy)phenyl)piperazin-1-yl)-2-phenylpropan-1-one], the Ki in experiment [1] is 1.5 nM; in experiment [2], 153 nM. For the same compound, the IC50 in experiment [3] was 3.3 nM.
As for `COCCOc1ccc(N2CCN(C(=O)C(C)(c3ccccc3)n3ncc4c3nc(N)n3nc(-c5ccco5)nc43)CC2)c(F)c1F` (stereo not shown) [Compound A67, 2-(5-amino-2-(furan-2-yl)-7H-pyrazolo[4,3-e][1,2,4]triazolo[1,5-c]pyrimidin-7-yl)-1-(4-(2,3-difluoro-4-(2-methoxyethoxy)phenyl)piperazin-1-yl)-2-phenylpropan-1-one], in experiment [3], inhibition was half-maximal at 8.9 nM (IC50).
As for `COCCOc1ccc(N2CCN(C(=O)C(C)(c3ccccc3F)n3ncc4c3nc(N)n3nc(-c5ccco5)nc43)CC2)cc1` (stereo not shown) [Compound A87, 2-(5-amino-2-(furan-2-yl)-7H-pyrazolo[4,3-e][1,2,4]triazolo[1,5-c]pyrimidin-7-yl)-2-(2-fluorophenyl)-1-(4-(4-(2-methoxyethoxy)phenyl)piperazin-1-yl)propan-1-one], in experiment [3], the IC50 was found to be 2 nM.
Take `COCCOCCOc1ccc(N2CCN(C(=O)C(CC(C)C)n3ncc4c3nc(N)n3nc(-c5ccco5)nc43)CC2)cc1` (stereo not shown) [Compound A17, 2-(5-amino-2-(furan-2-yl)-7H-pyrazolo[4,3-e][1,2,4]triazolo[1,5-c]pyrimidin-7-yl)-1-(4-(4-(2-(2-methoxyethoxy)ethoxy)phenyl)piperazin-1-yl)-4-methylpentan-1-one]: the 50% inhibitory concentration (IC50) in experiment [3] stood at 1.1 nM.
For `COCCOc1ccc(N2CCN(C(=O)C(c3ccccc3)n3ncc4c3nc(N)n3nc(-c5ccco5)nc43)CC2C)cc1` (single isomer, unassigned) [Compound A47a], the IC50 in experiment [3] turned out to be 17.3 nM.
As for `CC(C(=O)N1CCc2ccccc2C1)(c1ccccc1)n1ncc2c1nc(N)n1nc(-c3ccco3)nc21` (stereo not shown) [Compound B18, 2-(5-amino-2-(furan-2-yl)-7H-pyrazolo[4,3-e][1,2,4]triazolo[1,5-c]pyrimidin-7-yl)-1-(3,4-dihydroisoquinolin-2(1H)-yl)-2-phenylpropan-1-one], the IC50 in experiment [3] came to 111 nM.
`CO[C@H]1CCCN(C(=O)C(C)(c2ccccc2)n2ncc3c2nc(N)n2nc(-c4ccco4)nc32)C1` (stereo partly drawn) [Compound B28, 2-(5-amino-2-(furan-2-yl)-7H-pyrazolo[4,3-e][1,2,4]triazolo[1,5-c]pyrimidin-7-yl)-1-((S)-3-methoxypiperidin-1-yl)-2-phenylpropan-1-one]: 33.5 nM corresponded to half-maximal inhibition in experiment [3] (IC50).
